pIC50: −log10 of the molar value.

The target in the first experiment is human P2X7 receptor (Homo sapiens, UniProt Q99572, R270H/Y155H). In words: Evaluation of human P2X7 receptor inhibitory activity (Yo-Pro uptake, BzATP stimulation, FLIPR TETRA). In kind it is cell-based. The settings on record: 1321N1 cells stably expressing human P2X7 receptor; BzATP stimulation, Yo-Pro uptake; read-out: IC50 (antagonistic activity for the human P2X7 receptor). The method, boiled down: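 Yo-Pro dye uptake triggered by BzATP was monitored by FLIPR in human P2X7-transfected 1321N1 cells (SNP variant) in HEPES-buffered HBSS, pH 7.4-7.5. Compound was dispensed 8 min post-stimulation, then signal read for 20 min; IC50 derived logistically from inhibition of the fluorescence range.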
For the compound `COc1cn(Cc2cc(F)c(F)c(F)c2)c(Nc2ccc3[nH]ccc3c2C)nc1=O` [Compound I-0939], the pIC50 was 8.40. On the same count and under the same terms, the figure for `COC(=O)Nc1cn(Cc2ccccc2)c(Nc2cccc(Cl)c2C)nc1=O` [Compound I-0020] is 7.77. Consider `Cc1cc(OC(F)F)c(C)cc1Nc1nc(=O)c(F)cn1Cc1cc(F)cc(F)c1` [Compound I-0836], for which the pIC50 is 8.70.

The experiment is the same for the next values; noted with them: 1321N1 cells stably expressing human P2X7 receptor; BzATP stimulation, Yo-Pro uptake; read-out: IC50 (antagonistic activity for the human P2X7 receptor), class symbol.
As to `COc1cn(Cc2ccc(F)c(Cl)c2)c(Nc2cccc(C)c2C)nc1=O` [Compound I-0325], the pIC50 was over 8.00. The same measure, in the same setting: with `CCc1cc(Cl)ccc1Nc1nc(=O)c(OC)cn1Cc1ccccc1` [Compound I-0161] the figure was 7.00 to 8.00; with `COc1cn(Cc2ccc(F)c(Cl)c2)c(Nc2cc(C)ccc2C)nc1=O` [Compound I-0334], over 8.00; with `COc1cn(Cc2cc(C)cc(F)c2)c(Nc2cccc(Cl)c2C)nc1=O` [Compound I-0461], over 8.00. Same read-out and setting: the figure for `Cc1cccc(Nc2nc(=O)c(F)cn2Cc2ccc(F)cc2)c1C` [Compound I-0139] is over 8.00; for `CCc1c(Nc2nc(=O)c(OC)cn2Cc2cccc(Cl)c2)cc(OC)cc1OC` [Compound I-0362] it is over 8.00.

For `COc1cn(Cc2ccccc2)c(Nc2cc(Cl)c(Cl)cc2C)nc1=O` [Compound I-0448], the pIC50 was 7.00 to 8.00.

For `COc1cn(Cc2ccc(F)cc2)c(Nc2cccc(Cl)c2C)nc1=O` [Compound I-0001], the pIC50 is over 8.00. Still for that read-out and setting: with `COc1cn(Cc2ccccc2C)c(Nc2cccc(Cl)c2C)nc1=O` [Compound I-0043] the figure was 6.30 to 7.00. For the compound `COc1cn(Cc2cccc(F)c2)c(Nc2cc(C)c(Cl)cc2C)nc1=O` [Compound I-0168], the pIC50 was over 8.00.

In the case of `COc1cn(Cc2cc(F)cc(F)c2)c(Nc2cccc(C)c2C)nc1=O` [Compound I-0326], the pIC50 was over 8.00. Still for that read-out and setting: the figure for `COc1cn(Cc2cc(F)cc(F)c2)c(Nc2cccc(C)c2Cl)nc1=O` [Compound I-0505] is 7.00 to 8.00.

As for `Cc1cc2c(cc1Nc1nc(=O)c(F)cn1Cc1cccc(Cl)c1)OCCO2` [Compound I-0368], the pIC50 was 7.00 to 8.00. Take `COc1cn(Cc2ccc(F)c(Cl)c2)c(Nc2cccc(N(C)C)c2C)nc1=O` [Compound I-0402]: the pIC50 is over 8.00. Turning to `COc1cn(Cc2cccc(Cl)c2)c(Nc2cc(C)c(C)cc2C)nc1=O` [Compound I-0165], the pIC50 is over 8.00. Still for that read-out and setting: with `COc1cc(C)cc(Nc2nc(=O)c(OC)cn2Cc2cc(F)cc(Cl)c2)c1C` [Compound I-0395] the figure was over 8.00. On the same count and under the same terms, with `COc1cc(C)c(Nc2nc(=O)c(OC)cn2Cc2cc(F)cc(Cl)c2)cc1OC` [Compound I-0469] the figure was over 8.00; with `CCc1ccc(OC)cc1Nc1nc(=O)c(OC)cn1Cc1ccccc1` [Compound I-0236], 7.00 to 8.00. For `COc1cn(Cc2cc(F)cc(Cl)c2)c(Nc2cc(CO)c(C)cc2C)nc1=O` [Compound I-0578], the pIC50 is over 8.00. The same measure, in the same setting: the figure for `CCc1cc(Cl)ccc1Nc1nc(=O)c(OC)cn1Cc1ccc(F)c(Cl)c1` [Compound I-0545] is over 8.00. For `Cc1c(Cl)cccc1Nc1nc(=O)c(Br)cn1Cc1ccccc1` [Compound I-0027], the pIC50 is 7.00 to 8.00. Still for that read-out and setting: with `COc1cc(C)c(Nc2nc(=O)c(OC)cn2Cc2cc(F)cc(F)c2)cc1OC` [Compound I-0439] the figure was over 8.00; with `COc1cn(Cc2ccccc2)c(NCc2cccc(C(F)(F)F)c2Cl)nc1=O` [Compound I-0035], 6.30 to 7.00; with `COC(=O)c1cccc(Nc2nc(=O)c(OC)cn2Cc2ccccc2)c1C` [Compound I-0088], 6.30 to 7.00. As to `Cc1c(Cl)cccc1Nc1nc(=O)c(C(=O)NCC#N)cn1Cc1ccccc1` [Compound I-0075], the pIC50 is 6.30 to 7.00. On the same count and under the same terms, the figure for `COc1cn(Cc2ccccc2)c(Nc2ccccc2Cc2ccccc2)nc1=O` [Compound I-0118] is 7.00 to 8.00; for `COc1ccc(Nc2nc(=O)c(OC)cn2Cc2cccc(F)c2)c(C)c1` [Compound I-0249] it is over 8.00. On the same count and under the same terms, with `COc1cn(Cc2ccccc2)c(N[C@@H]2CCc3ccccc32)nc1=O` [Compound I-0201] the figure was 6.00 to 6.30; with `COc1cn(Cc2ccc(F)cc2F)c(Nc2cccc(Cl)c2C)nc1=O` [Compound I-0329], 7.00 to 8.00.

For `COc1cn(Cc2cccc(F)c2)c(Nc2cc(C)c(F)cc2C)nc1=O` [Compound I-0442], the pIC50 is over 8.00. Consider `COc1cn(Cc2c(F)cccc2F)c(Nc2cccc(Cl)c2C)nc1=O` [Compound I-0311], for which the pIC50 was 6.30 to 7.00. The same measure, in the same setting: with `COc1cn(Cc2ccccc2)c(Nc2cc(N3CCCC3=O)ccc2C)nc1=O` [Compound I-0393] the figure was 7.00 to 8.00. The same measure, in the same setting: with `CCc1ccc(OC)cc1Nc1nc(=O)c(OC)cn1Cc1ccc(F)cc1` [Compound I-0253] the figure was 7.00 to 8.00. Still for that read-out and setting: the figure for `COc1cn(Cc2ccc(F)c(F)c2)c(Nc2cc(C)ccc2C)nc1=O` [Compound I-0434] is over 8.00; for `CCCc1ccccc1Nc1nc(=O)c(OC)cn1Cc1ccccc1` [Compound I-0109] it is 6.00 to 6.30. With `COc1cn(Cc2ccccc2)c(Nc2cc(F)ccc2C)nc1=O` [Compound I-0090], the pIC50 was 6.30 to 7.00. Consider `COc1cn(Cc2ccc(F)c(F)c2)c(Nc2cc(C)c(Cl)cc2C)nc1=O` [Compound I-0279], for which the pIC50 is over 8.00.

The experiment is the same for the next values; noted with them: antagonistic activity for the human P2X7 receptor; read-out: IC50.
Take `COc1cn(Cc2cc(F)cc(F)c2)c(Nc2cccc3c(=O)n(C)ccc23)nc1=O` [Compound I-0905]: the pIC50 was 6.30 to 7.00. `O=c1nc(Nc2cccc3c(O)cccc23)n(Cc2cc(F)cc(F)c2)cc1F` [Compound I-1114]: the pIC50 is over 8.00. Consider `COc1cn(Cc2ccc(F)c(Cl)c2)c(Nc2cc(C(C)(C)O)ccc2C)nc1=O` [Compound I-0775], for which the pIC50 is 7.00 to 8.00. The same measure, in the same setting: with `Cc1ccc(Nc2nc(=O)c(F)cn2Cc2cc(F)c(F)c(F)c2)c(C)c1` [Compound I-1193] the figure was over 8.00; with `Cc1cc(C)c(Nc2nc(=O)c(F)cn2Cc2cc(F)c(F)c(F)c2)cc1C` [Compound I-1200], over 8.00; with `COCCOc1cc(Nc2nc(=O)c(F)cn2Cc2cc(F)c(F)c(F)c2)c(C)cc1F` [Compound I-1204], over 8.00. Same read-out and setting: with `CCOc1cc(C)c(Nc2nc(=O)c(F)cn2Cc2cc(F)cc(F)c2)cc1F` [Compound I-1061] the figure was 7.00 to 8.00; with `Cc1cc2c(cc1Nc1nc(=O)c(F)cn1Cc1cc(F)cc(F)c1)COC2` [Compound I-1027], 7.00 to 8.00. For `COc1cn(Cc2ccc(F)c(F)c2)c(Nc2cc(-c3cscn3)ccc2C)nc1=O` [Compound I-0751], the negative logarithm of the IC50 (pIC50) is over 8.00. Still for that read-out and setting: the figure for `CCOc1cc(Nc2nc(=O)c(F)cn2Cc2ccc(F)c(Cl)c2)c(C)cc1F` [Compound I-1031] is over 8.00. Same read-out and setting: the figure for `COc1cn(Cc2ccc(F)c(Cl)c2)c(Nc2cc(N3CCOCC3)ccc2C)nc1=O` [Compound I-0735] is 7.00 to 8.00; for `COCc1cc(=O)nc(Nc2cc(OC)c(OC)cc2C)n1Cc1cc(F)c(F)c(F)c1` [Compound I-1147] it is 7.00 to 8.00; for `Cc1c(Nc2nc(=O)c(F)cn2Cc2cc(F)c(F)c(F)c2)ccc2scnc12` [Compound I-1203] it is over 8.00.

`COC(=O)/C=C/c1ccc(C)c(Nc2nc(=O)c(OC)cn2Cc2cc(F)c(F)c(F)c2)c1` [Compound I-1079]: the negative logarithm of the IC50 (pIC50) is 7.00 to 8.00.

`COCc1cn(Cc2cc(F)c(F)c(F)c2)c(Nc2ccc3[nH]ccc3c2C)nc1=O` [Compound I-1163]: the pIC50 is over 8.00. Still for that read-out and setting: with `COc1cn(Cc2ccccc2)c(Nc2cc(S(C)(=O)=O)cc(C)c2C)nc1=O` [Compound I-0754] the figure was 7.00 to 8.00. Take `Cc1cc(OC(F)F)c(C)cc1Nc1nc(=O)c(F)cn1Cc1ccc(F)c(Cl)c1` [Compound I-0834]: the pIC50 is over 8.00. Turning to `Cc1nc2ccc(Nc3nc(=O)c(F)cn3Cc3cc(F)cc(F)c3)c(C)c2s1` [Compound I-1198], the pIC50 is over 8.00. Same read-out and setting: with `COc1cc(C)c(C)c(Nc2nc(=O)c(F)cn2Cc2cc(F)cc(F)c2)c1` [Compound I-1233] the figure was over 8.00; with `COCc1cn(Cc2cc(F)c(F)c(F)c2)c(Nc2cc(C)cc3[nH]ccc23)nc1=O` [Compound I-1155], over 8.00; with `Cc1ccc(-c2cccn(C)c2=O)cc1Nc1nc(=O)c(C)cn1Cc1cc(F)c(F)c(F)c1` [Compound I-1143], 7.00 to 8.00.

As to `COc1cn(Cc2ccccc2)c(Nc2cc(-c3ccc(C)o3)ccc2C)nc1=O` [Compound I-0658], the pIC50 was 7.00 to 8.00. Same read-out and setting: the figure for `Cc1nc2cc(C)c(Nc3nc(=O)cc(C)n3Cc3cc(F)c(F)c(F)c3)cc2s1` [Compound I-1136] is 7.00 to 8.00; for `COc1ccc(Nc2nc(=O)c(CCO)cn2Cc2cc(F)c(F)c(F)c2)c(C)c1` [Compound I-1104] it is 7.00 to 8.00. Still for that read-out and setting: with `COc1cn(Cc2ccc(F)c(Cl)c2)c(Nc2ccc3occc3c2C)nc1=O` [Compound I-0799] the figure was over 8.00; with `COc1nc2ccc(Nc3nc(=O)c(OC)cn3Cc3ccc(F)c(Cl)c3)c(C)c2s1` [Compound I-0826], 7.00 to 8.00; with `COc1cn(Cc2ccccc2)c(Nc2c(C)cccc2C)nc1=O` [Compound I-0724], 6.30 to 7.00.

On to `CCc1cc(OC)c(OC)cc1Nc1nc(=O)c(OC)cn1Cc1cc(F)c(F)c(F)c1` [Compound I-0908], for which the pIC50 was over 8.00. Same read-out and setting: with `COc1ccc(Nc2nc(=O)cnn2Cc2ccccc2F)c(C)c1` [Compound I-1275] the figure was 6.30 to 7.00; with `Cc1cc(N(C)C)ccc1Nc1nc(=O)c(F)cn1Cc1cc(F)cc(F)c1` [Compound I-1241], over 8.00. Same read-out and setting: the figure for `COc1cn(Cc2ccccc2)c(Nc2cc(-c3ccnn3C)ccc2C)nc1=O` [Compound I-0782] is 6.30 to 7.00; for `Cc1ccc(-c2cscn2)cc1Nc1nc(=O)c(F)cn1Cc1cc(F)cc(F)c1` [Compound I-0867] it is over 8.00.

What is called pIC50 is −log10 of the IC50, conventionally taken in molar units.

The record behind these values is patent US10774051B2, “6-membered heterocyclic derivatives and pharmaceutical composition comprising the same” (Shionogi & Co., Ltd., priority 2015, dated 2020).
